Test results from PubChem BioAssay AID248 (DTP/NCI, 2004).
Several values for one entry are separate records, joined by “and”; a condition that tells them apart may be missing. Equal entries are not always repeated. Inconclusive results and toxic doses are left out. No stated cut-off is given here; in the data, active means T/C of 150% or more; inactive means T/C below 125%.

System: L1210 leukemia ip in BDF1 mice, survival T/C
Assay: NCI In Vivo Anticancer Drug Screen. Data for tumor model L1210 Leukemia (intraperitoneal) in B6D2F1 (BDF1) mice
Settings: endpoint: mean survival time, higher = longer survival
Procedure, shortened: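 Each compound was tested against a transplantable tumor grown in mice. The endpoint was survival, with treated animals benchmarked against vehicle controls as a simple ratio.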

[1] = dose: 100.0 mg/kg/injection, schedule: Q01DX009 (ip), vehicle: saline
[2] = dose: 200.0 mg/kg/injection, schedule: Q01DX009 (ip), vehicle: saline
[3] = dose: 100.0 mg/kg/injection, schedule: Q01DX009 (ip), vehicle: Klucel (hydroxypropylcellulose) (HPC)
[4] = dose: 200.0 mg/kg/injection, schedule: Q01DX009 (ip), vehicle: Klucel (hydroxypropylcellulose) (HPC)
[5] = dose: 400.0 mg/kg/injection, schedule: Q01DX009 (ip), vehicle: Klucel (hydroxypropylcellulose) (HPC)

Measured: T/C

CC(=O)OC(C)(C)/C=C/C(=O)[C@](C)(O)[C@H]1[C@H](O)C[C@@]2(C)[C@@H]3CC=C4[C@@H](C[C@H](O)C(=O)C4(C)C)[C@]3(C)C(=O)C[C@]12C
inactive: dose: 0.12 mg/kg/injection, schedule: Q01DX009 (ip), vehicle: saline 88 % of control | dose: 0.12 mg/kg/injection, schedule: Q04DX003 (ip), vehicle: saline 98 % of control | dose: 0.16 mg/kg/injection, schedule: Q01DX Z (ip), vehicle: saline 100 % of control | dose: 0.25 mg/kg/injection, schedule: Q01DX001 (ip), vehicle: saline 92 % of control | dose: 0.25 mg/kg/injection, schedule: Q01DX009 (ip), vehicle: saline 100 % of control | dose: 0.25 mg/kg/injection, schedule: Q01DX Z (ip), vehicle: saline 113 % of control | dose: 0.25 mg/kg/injection, schedule: Q04DX003 (ip), vehicle: saline 102 % of control | dose: 0.38 mg/kg/injection, schedule: Q01DX Z (ip), vehicle: saline 103 % of control | dose: 0.4 mg/kg/injection, schedule: Q01DX Z (ip), vehicle: carboxymethylcellulose (CMC) 93 % of control and 103 % of control | dose: 0.5 mg/kg/injection, schedule: Q01DX001 (ip), vehicle: saline 98 % of control | dose: 0.5 mg/kg/injection, schedule: Q01DX009 (ip), vehicle: saline 103 % of control | dose: 0.5 mg/kg/injection, schedule: Q04DX003 (ip), vehicle: saline 106 % of control | dose: 0.57 mg/kg/injection, schedule: Q01DX Z (ip), vehicle: saline 103 % of control | dose: 0.8 mg/kg/injection, schedule: Q01DX Z (ip), vehicle: carboxymethylcellulose (CMC) 108 % of control

COc1cccc(CC(N)=O)c1OC
inactive: [1] 97 % of control | dose: 100.0 mg/kg/injection, schedule: Q04DX003 (ip), vehicle: saline 95 % of control | [2] 90 % of control | dose: 200.0 mg/kg/injection, schedule: Q04DX003 (ip), vehicle: saline 92 % of control | dose: 400.0 mg/kg/injection, schedule: Q04DX003 (ip), vehicle: saline 97 % of control

C(=NCC(CCN1CCCC1)(CCN1CCCC1)c1cccc2ccccc12)C(CCN1CCCC1)(CCN1CCCC1)c1cccc2ccccc12
inactive: dose: 5.0 mg/kg/injection, schedule: Q01DX009 (ip), vehicle: saline with Tween-80 106 % of control | dose: 6.25 mg/kg/injection, schedule: Q04DX002 (ip), vehicle: saline 92 % of control | dose: 10.0 mg/kg/injection, schedule: Q01DX009 (ip), vehicle: saline with Tween-80 106 % of control | dose: 12.5 mg/kg/injection, schedule: Q04DX002 (ip), vehicle: saline 101 % of control

COc1cc(NC2CCCCC2O)c2nc(-c3ccc(Cl)cc3)ccc2c1 (stereo unspecified)
inactive: [1] 98 % of control | [2] 90 % of control | dose: 400.0 mg/kg/injection, schedule: Q01DX009 (ip), vehicle: saline 86 % of control

CC(=O)Nc1ccc([N+](=O)[O-])cc1
inactive: dose: 100.0 mg/kg/injection, schedule: Q04DX002 (ip), vehicle: gum acacia 98 % of control | dose: 200.0 mg/kg/injection, schedule: Q04DX002 (ip), vehicle: gum acacia 88 % of control | dose: 400.0 mg/kg/injection, schedule: Q04DX002 (ip), vehicle: gum acacia 107 % of control

CC(C)(COC(=O)c1ccccc1)COC(=O)c1ccccc1
inactive: [3] 116 % of control | dose: 100.0 mg/kg/injection, schedule: Q04DX003 (ip), vehicle: Klucel (hydroxypropylcellulose) (HPC) 96 % of control | [4] 93 % of control | dose: 200.0 mg/kg/injection, schedule: Q04DX003 (ip), vehicle: Klucel (hydroxypropylcellulose) (HPC) 107 % of control | [5] 93 % of control | dose: 400.0 mg/kg/injection, schedule: Q04DX003 (ip), vehicle: Klucel (hydroxypropylcellulose) (HPC) 98 % of control

C#CC(OC(=O)NC(CCSC)C(=O)OC)(c1ccccc1)c1ccccc1 (stereo unspecified)
inactive: dose: 100.0 mg/kg/injection, schedule: Q01DX001 (ip), vehicle: saline with Tween-80 99 % of control | dose: 200.0 mg/kg/injection, schedule: Q01DX001 (ip), vehicle: saline with Tween-80 99 % of control

O=C(CC(=O)Nc1ccc(C2=NCCCN2)cc1)Nc1ccc(C2=NCCCN2)cc1
inactive: dose: 6.25 mg/kg/injection, schedule: Q01DX Z (ip), vehicle: water 110 % of control | dose: 12.5 mg/kg/injection, schedule: Q01DX Z (ip), vehicle: water 113 % of control | dose: 25.0 mg/kg/injection, schedule: Q01DX Z (ip), vehicle: water 101 % of control | dose: 50.0 mg/kg/injection, schedule: Q01DX Z (ip), vehicle: water 104 % of control | dose: 62.5 mg/kg/injection, schedule: Q01DX Z (ip), vehicle: water 96 % of control | dose: 125.0 mg/kg/injection, schedule: Q01DX Z (ip), vehicle: water 102 % of control | dose: 250.0 mg/kg/injection, schedule: Q01DX Z (ip), vehicle: water 97 % of control

CC(NC(=O)C(NC(=O)c1cnc2ccccc2n1)C(C)C)C(=O)O (stereo unspecified)
inactive: dose: 100.0 mg/kg/injection, schedule: Q01DX001 (ip), vehicle: saline 94 % of control | dose: 100.0 mg/kg/injection, schedule: Q04DX003 (ip), vehicle: acetone 99 % of control | dose: 200.0 mg/kg/injection, schedule: Q01DX001 (ip), vehicle: saline 104 % of control | dose: 200.0 mg/kg/injection, schedule: Q04DX003 (ip), vehicle: acetone 103 % of control | dose: 400.0 mg/kg/injection, schedule: Q01DX001 (ip), vehicle: saline 96 % of control | dose: 400.0 mg/kg/injection, schedule: Q04DX003 (ip), vehicle: acetone 99 % of control

O=P1(c2ccccc2)CCc2[nH]c3ccc(Br)cc3c2C1 (stereo unspecified)
inactive: dose: 100.0 mg/kg/injection, schedule: Q01DX001 (ip), vehicle: Klucel (hydroxypropylcellulose) (HPC) 97 % of control | dose: 200.0 mg/kg/injection, schedule: Q01DX001 (ip), vehicle: Klucel (hydroxypropylcellulose) (HPC) 93 % of control | dose: 400.0 mg/kg/injection, schedule: Q01DX001 (ip), vehicle: Klucel (hydroxypropylcellulose) (HPC) 98 % of control

Nc1ccccc1SC(CC(=O)c1ccccc1)c1ccc([N+](=O)[O-])cc1 (stereo unspecified)
inactive: dose: 100.0 mg/kg/injection, schedule: Q01DX005 (ip), vehicle: Klucel (hydroxypropylcellulose) (HPC) 101 % of control | [3] 97 % of control | [4] 91 % of control | dose: 400.0 mg/kg/injection, schedule: Q01DX005 (ip), vehicle: Klucel (hydroxypropylcellulose) (HPC) 86 % of control | [5] 97 % of control

O=CN(N=O)c1ccc(Br)cc1
inactive: dose: 75.0 mg/kg/injection, schedule: Q01DX001 (ip), vehicle: other 96 % of control | dose: 150.0 mg/kg/injection, schedule: Q01DX001 (ip), vehicle: other 101 % of control | dose: 300.0 mg/kg/injection, schedule: Q01DX001 (ip), vehicle: other 103 % of control

O=C1CC(=O)C(Br)=C1Br
inactive: dose: 1.5 mg/kg/injection, schedule: Q04DX003 (ip), vehicle: saline with Tween-80 101 % of control | dose: 3.0 mg/kg/injection, schedule: Q04DX003 (ip), vehicle: saline with Tween-80 105 % of control

Cc1ccc(NC(=O)C2CCC(C)(C(=O)O)C2(C)C)cc1 (stereo unspecified)
inactive: dose: 50.0 mg/kg/injection, schedule: Q01DX009 (ip), vehicle: saline with Tween-80 104 % of control | dose: 100.0 mg/kg/injection, schedule: Q01DX009 (ip), vehicle: saline with Tween-80 101 % of control | dose: 200.0 mg/kg/injection, schedule: Q01DX009 (ip), vehicle: saline with Tween-80 93 % of control

O=C1C=C(C(Cl)(Cl)Cl)OC(=O)C1
inactive: dose: 100.0 mg/kg/injection, schedule: Q04DX003 (ip), vehicle: saline with Tween-80 98 % of control | dose: 200.0 mg/kg/injection, schedule: Q04DX003 (ip), vehicle: saline with Tween-80 98 % of control | dose: 400.0 mg/kg/injection, schedule: Q04DX003 (ip), vehicle: saline with Tween-80 93 % of control

CC(=O)NC1=C(Oc2ccc(C)cc2)C(=O)c2ccccc2C1=O
inactive: dose: 75.0 mg/kg/injection, schedule: Q01DX001 (ip), vehicle: saline 98 % of control | dose: 150.0 mg/kg/injection, schedule: Q01DX001 (ip), vehicle: saline 96 % of control
